Reference: ChEMBL document CHEMBL3526091, “Pharmacokinetics, metabolism, and excretion of the glycogen synthase kinase-3 inhibitor LY2090314 in rats, dogs, and humans: a case study in rapid clearance by extensive metabolism with low circulating metabolite exposure” (Drug Metab Dispos, 2013)

Experiments:
[1] = Drug recovery in bile duct-cannulated Sprague-Dawley rat assessed as radioactivity in bile during 0 to 24 hrs at 5 mg/kg, iv administered for 30 mins relative to dosed radioactivity; format: ADME, organism-based; design: dose 5 mg/kg, dosed compound name [14C]LY2090314, route intravenous; details: in vivo
Rattus norvegicus [2] = test: Total drug recovery in bile duct-cannulated Sprague-Dawley rat at 5 mg/kg, iv administered for 30 mins during 0 to 12 hrs time interval by radio analysis; format: ADME, organism-based; design: dose 5 mg/kg, dosed compound name [14C]LY2090314, route intravenous; details: in vivo
[3] = AUC (0 to infinity) in cancer patient at 10 mg for 60 mins treated 2/1 cycle/day; format: ADME, organism-based; design: dose 10 mg, time infinity, dosed compound name LY2090314; details: human, plasma
Blood = test: Drug uptake in Sprague-Dawley rat blood at 5 mg/kg, iv administered for 30 mins; format: ADME, organism-based; design: dose 5 mg/kg, dosed compound name [14C]LY2090314, route intravenous; details: in vivo, 0.5 h
[4] = Elimination half life in Sprague-Dawley rat at 5 mg/kg, iv administered for 30 mins; format: ADME, organism-based; design: dose 5 mg/kg, dosed compound name [14C]LY2090314, route intravenous; details: in vivo, read-out: beta t1/2 (converted)
[5] = AUC (0 to infinity) in cancer patient at 120 mg for 60 mins treated 1/8 cycle/day; format: ADME, organism-based; design: dose 120 mg, time infinity, dosed compound name LY2090314; details: human, plasma
[6] = Clearance in cancer patient at 10 mg for 60 mins treated 1/1 cycle/day; format: ADME, organism-based; design: dosed compound name LY2090314; details: human, in vivo
Plasma = test: Drug recovery in beagle dog plasma assessed as radiochemical peak area at 5 mg/kg, iv administered for 30 mins after 2 hrs by radio analysis; format: ADME, organism-based, Canis lupus familiaris; design: dose 5 mg/kg, dosed compound name [14C]LY2090314, route intravenous; details: in vivo
[7] = AUC (0 to infinity) in Sprague-Dawley rat at 5 mg/kg, iv administered for 30 mins; format: ADME, organism-based; design: time infinity, dose 5 mg/kg, dosed compound name [14C]LY2090314, route intravenous; details: plasma
Canis familiaris [8] = test: Total drug recovery in beagle dog at 5 mg/kg, iv administered for 30 mins during 48 hrs time interval by radio analysis; format: ADME, organism-based, Canis lupus familiaris; design: dose 5 mg/kg, dosed compound name [14C]LY2090314, route intravenous; details: in vivo
[9] = AUC (0 to infinity) in cancer patient at 120 mg for 60 mins treated 1/1 cycle/day; format: ADME, organism-based; design: dose 120 mg, time infinity, dosed compound name LY2090314; details: human, plasma
[10] = Plasma protein binding in rat; format: ADME, cell-free; design: dosed compound name [14C]LY2090314; details: read-out: PPB (converted)
[11] = Half life in cancer patient at 10 mg for 60 mins treated 1/1 cycle/day; format: ADME, organism-based; design: dosed compound name LY2090314; details: human, in vivo
[12] = Cmax in cancer patient at 10 mg for 60 mins treated 2/1 cycle/day; format: ADME, organism-based; design: dose 10 mg, dosed compound name LY2090314; details: human, in vivo
[13] = Drug recovery in bile duct-cannulated Sprague-Dawley rat assessed as radioactivity in bile during 0 to 12 hrs at 5 mg/kg, iv administered for 30 mins relative to dosed radioactivity; format: ADME, organism-based; design: dose 5 mg/kg, dosed compound name [14C]LY2090314, route intravenous; details: in vivo
[14] = Drug recovery in beagle dog feces at 5 mg/kg, iv administered for 30 mins during 0 to 168 hrs time interval by radio analysis; format: ADME, organism-based, Canis lupus familiaris; design: dose 5 mg/kg, dosed compound name [14C]LY2090314, route intravenous; details: in vivo
Canis familiaris [15] = test: AUC (0 to infinity) in beagle dog assessed as total radioactivity at 5 mg/kg, iv administered for 30 mins; format: ADME, organism-based, Canis lupus familiaris, Plasma; design: dose 5 mg/kg, dosed compound name [14C]LY2090314, route intravenous, time infinity; details: in vivo, 0.5 h
Canis familiaris [16] = test: Cmax in beagle dog assessed as total radioactivity at 5 mg/kg, iv administered for 30 mins; format: ADME, organism-based, Canis lupus familiaris; design: dose 5 mg/kg, dosed compound name [14C]LY2090314, route intravenous; details: in vivo, 0.5 h
[17] = Drug recovery in Sprague-Dawley rat feces at 5 mg/kg, iv administered for 30 mins during 48 hrs time interval by radio analysis; format: ADME, organism-based; design: dose 5 mg/kg, dosed compound name [14C]LY2090314, route intravenous; details: in vivo
[18] = Volume of distribution at steady state in Sprague-Dawley rat at 5 mg/kg, iv administered for 30 mins; format: ADME, organism-based; design: dose 5 mg/kg, dosed compound name [14C]LY2090314, route intravenous; details: in vivo, read-out: Vdss
[19] = Volume of distribution at steady state in beagle dog at 5 mg/kg, iv administered for 30 mins; format: ADME, organism-based, Canis lupus familiaris; design: dose 5 mg/kg, dosed compound name [14C]LY2090314, route intravenous; details: in vivo, read-out: Vdss
Rattus norvegicus [20] = test: Elimination half life in Sprague-Dawley rat assessed as total radioactivity at 5 mg/kg, iv administered for 30 mins; format: ADME, organism-based; design: dose 5 mg/kg, dosed compound name [14C]LY2090314, route intravenous; details: in vivo, 0.5 h
[21] = Drug recovery in bile duct-cannulated Sprague-Dawley rat feces at 5 mg/kg, iv administered for 30 mins during 0 to 168 hrs time interval by radio analysis; format: ADME, organism-based; design: dose 5 mg/kg, dosed compound name [14C]LY2090314, route intravenous; details: in vivo
[22] = Clearance in cancer patient at 120 mg for 60 mins treated 1/1 cycle/day; format: ADME, organism-based; design: dosed compound name LY2090314; details: human, in vivo
[23] = Drug recovery in bile duct-intact Sprague-Dawley rat assessed as radioactivity in feces during 0 to 24 hrs at 5 mg/kg, iv administered for 30 mins relative to dosed radioactivity; format: ADME, organism-based; design: dose 5 mg/kg, dosed compound name [14C]LY2090314, route intravenous; details: in vivo
[24] = Drug recovery in beagle dog feces at 5 mg/kg, iv administered for 30 mins during 0 to 24 hrs time interval by radio analysis; format: ADME, organism-based, Canis lupus familiaris; design: dose 5 mg/kg, dosed compound name [14C]LY2090314, route intravenous; details: in vivo
[25] = AUC (0 to infinity) in cancer patient at 40 mg for 60 mins treated 1/1 cycle/day; format: ADME, organism-based; design: dose 40 mg, time infinity, dosed compound name LY2090314; details: human, plasma

For O=C1NC(=O)C(c2cnc3ccccn23)=C1c1cn2c3c(cc(F)cc13)CN(C(=O)N1CCCCC1)CC2 [LY-2090314], the Radiolabel recovery [1] was 91.8%, the Radiolabel recovery (Rattus norvegicus [2]) was 87% and the AUC(0-inf) [3] was 192 ng·h/mL. It also gave a Compound recovery (Blood) of 83.4%, a half-life [4] of 0.358 h and an AUC(0-inf) [5] of 2190 ng·h/mL. For the same compound, the clearance [6] was 787 mL/min, the Radiolabel recovery (Plasma) was 36.09% and the AUC(0-inf) [7] was 1260 ng·h/mL. The Radiolabel recovery (Canis familiaris [8]) was 88%, the AUC(0-inf) [9] was 3310 ng·h/mL and the fraction unbound [10] was 0.02. The half-life [11] was 2.24 h, the Cmax [12] was 106 ng/mL and the Radiolabel recovery [13] was 85.2%. For the same compound, the Radiolabel recovery [14] was 69.2%, the AUC (Canis familiaris [15]) was 15067 ng·h/mL and the Cmax (Canis familiaris [16]) was 7240 ng/mL. The Radiolabel recovery [17] was 65.8%, the Vd [18] was 1.19 L/kg and the Vd [19] was 0.915 L/kg. For the same compound, the “beta t1/2” value (Rattus norvegicus [20]) was 7.25 h, the Radiolabel recovery [21] was 6.75% and the clearance [22] was 605 mL/min. The Radiolabel recovery [23] was 2.4%, the Radiolabel recovery [24] was 39.8% and the AUC(0-inf) [25] was 976 ng·h/mL.
